From publication PMC9177545, “3-oxo-C12:2-HSL, quorum sensing molecule from human intestinal microbiota, inhibits pro-inflammatory pathways in immune cells via bitter taste receptors” (Scientific Reports, 2022)

What was measured:
[1] = system: RAW264.7 macrophages; assay: Cytokine mRNA levels by RT-qPCR in RAW264.7 macrophages stimulated with LPS and IFNγ; assay type: cell-based, murine; settings: 50 µM, 2 h, vs control
Experimental: RAW264.7 murine macrophage cells (ATCC, Manassas, Virginia, USA) were cultured between passage 12 and 25 in Dulbecco’s modified Eagle’s medium supplemented with 10% heat-inactivated fetal calf serum and 1% L-glutamine (ThermoFisher Scientific). The macrophages were seeded at 35,000 cells per well in 12-well plates (Falcon) for ELISA experiments or 110,000 cells per well in 6-well plates (Falcon) for cell lysates, upon reaching 80–90% confluence after 3-day culture. Cells were maintained at 37 °C with 5% CO2/air atmosphere and the media were changed every other day.
Cells were exposed to 3-oxo-C12:2-HSL (synthesized as previously described[17]) or DMSO 0.1% as a control for different durations depending on the experiment, in the presence of the lactonase inhibitor 2-hydroxyquinoline (100 µM, Sigma-Aldrich), in order to limit the hydrolysis of the AHL lactone ring, as described previously[17],[18].
In RAW264.7 cells, inflammation was triggered with LPS (10 ng/mL, Sigma) and IFNγ (10 U/mL, R&Dsystems) for 2 h or 6 h, depending on the experiments. PBMC were exposed to LPS (10 ng/mL) and AHL for 24 h. For TAS2R38 inhibition experiments, cells were exposed to TAS2R38 allosteric inhibitor probenecid (1 mM, Sigma) for one hour before adding AHLs and the inflammatory cocktail, without changing the media.
Total RNA was extracted from RAW264.7 cells using TRIzol (Invitrogen) according to the manufacturer's instructions. Reverse Transcription (RT) was performed with 1 μg RNA using LunaScript® RT SuperMix Kit (NewEngland Biolabs). Semi-quantitative real-time PCR was performed with the Mx3000P Stratagene system using SYBR Green (Applied Biosystems) according to the manufacturer's procedures. Cyclophilin was used as the reference gene. After amplification, Ct were determined.

[2] = molecular target: T1, TAS2R38 (Homo sapiens, UniProt P59533); assay: Bitter taste receptor screening, calcium mobilization in HEK293T cells; assay type: cell-based
T1 construct: first 45 amino acids of rat somatostatin type 3 receptor (SSTR3) (N); expressed in transfected cells; host or cells: HEK293T stably expressing chimeric Gα16gust44, transiently co-transfected with the pcDNA4-TAS2R vector and pCMV-GCaMP5G
T1 sequence (P59533 1-333): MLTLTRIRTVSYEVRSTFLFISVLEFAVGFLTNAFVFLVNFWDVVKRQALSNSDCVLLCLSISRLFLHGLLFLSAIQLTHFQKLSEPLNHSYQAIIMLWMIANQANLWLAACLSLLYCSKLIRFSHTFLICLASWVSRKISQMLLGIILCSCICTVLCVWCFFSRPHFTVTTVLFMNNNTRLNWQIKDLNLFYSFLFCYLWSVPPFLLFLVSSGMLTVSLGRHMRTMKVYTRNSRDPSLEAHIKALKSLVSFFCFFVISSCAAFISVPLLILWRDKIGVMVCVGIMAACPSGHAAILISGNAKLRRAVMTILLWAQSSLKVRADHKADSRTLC
Experimental: (§1) Bitter taste receptor cDNA were cloned into the pcDNA4 mammalian expression vector (Invitrogen) using full coding receptor sequences reported on UniProt database. The synthetic constructs were codon optimized (Genewiz) and combine the first 45 amino acids of rat somatostatin type 3 receptor at the amino terminus to improve plasma membrane targeting of the receptors in the heterologous system. The FLAG epitope was added to the carboxy terminus without interfering with receptor functionality and can be used for immunocytochemistry. Calcium-mobilization assays were performed using human embryonic kidney cells (HEK293T) stably transfected with chimeric Gα16gust44 protein[78]. Cells were seeded in black, poly-D-lysine coated 96-well plates at a density of 35,000 cells/100 µL in high glucose DMEM supplemented with 10% dialysed fetal bovine serum and 1% penicillin/streptomycin. Twenty-four hours later, the cells were transiently co-transfected using Lipofectamine 2000 (Life Technologies) with one of the TAS2R synthetic optimized vectors or empty expression plasmid, as a negative control, and the pCMV-GCaMP5G construct (Addgene #31788) coding for a genetically encoded calcium indicator[79],[80]. Twenty-four hours after transfection, cells were washed twice with C1 buffer (130 mM NaCl, 5 mM KCl, 10 mM HEPES, 2 mM CaCl2, 5 mM sodium pyruvate, pH7.4). 3-oxo-C12:2-HSL was solved in DMSO and further diluted in C1 buffer. Next, the cells were placed in a fluorometric imaging plate reader (Flexstation® 3, Molecular Devices) and stimulated with automatic injection of increasing concentrations of AHLs. Calcium responses leading to increase in fluorescence were monitored at 510 nm after excitation at 488 nm. Experiments were performed in duplicates and repeated at least four times. The recorded calcium levels of each wells receiving the same stimulus were averaged, response of mock-transfected cells were subtracted from receptor-transfected cells and net signals were normalized to background fluorescence (F/F0, F0 fluorescence light before stimulus application). The resulting dose–response curves of the averaged fluorescent signal amplitudes against the logarithm of the agonist concentration were fitted using Sigma Plot software. For data analysis, the four-parameter logistic equation [f(x) = min + (max − min)/(1 + (x/EC50)nH)] was used to calculate the half-maximal effective concentrations (EC50 values).

[3] = molecular target: T2, TAS2R8 (Homo sapiens, UniProt Q9NYW2); assay: as above; assay type: cell-based
T2 construct: first 45 amino acids of rat somatostatin type 3 receptor (SSTR3) (N); expressed in transfected cells; host or cells: HEK293T stably expressing chimeric Gα16gust44, transiently co-transfected with the pcDNA4-TAS2R vector and pCMV-GCaMP5G
T2 sequence (Q9NYW2 1-309): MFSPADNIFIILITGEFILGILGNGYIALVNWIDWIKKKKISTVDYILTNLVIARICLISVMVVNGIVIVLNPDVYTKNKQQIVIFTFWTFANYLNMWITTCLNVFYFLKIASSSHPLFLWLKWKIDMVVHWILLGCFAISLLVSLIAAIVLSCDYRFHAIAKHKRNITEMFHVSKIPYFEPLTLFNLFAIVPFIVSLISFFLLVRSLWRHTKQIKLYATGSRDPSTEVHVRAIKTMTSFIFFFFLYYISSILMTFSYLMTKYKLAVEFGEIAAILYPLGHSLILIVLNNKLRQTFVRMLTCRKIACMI
Experimental: as §1

[4] = system: RAW264.7 cells; assay: Intracellular calcium assay (Fluo-4) in RAW264.7 cells; assay type: cell-based, murine; settings: 1000 µM
Experimental: RAW264.7 cells were seeded in black, clear-bottom 96-well plates (Costar) at 20,000 cells per well. The next day, release of intracellular Ca^2+ was measured using Fluo-4 (Fluo-4 Direct Calcium Assay; Life Technologies) according to the manufacturer’s instructions. Medium was discarded and 100 µL of 1 X Fluo-4 dye was incubated at 37 °C for 1 h in 5% CO2, protected from light. Then, basal fluorescence was measured using a fluorospectrometer (FLUOstar Omega; BMG Labtech), excitation at 485 nm and emission at 520 nm. Molecules of interest were then added with an electronic pipette; thapsigargin (10 µM, Sigma) as a positive control, 3-oxo-C12:2-HSL (1000 µM) or DMSO 0.5%; with 8 replicates per conditions for every experiment. The fluorescence signal was immediately measured every 80 s for 2 h. Results are expressed as a ratio of the fluorescence x times over the basal fluorescence (F/F0).

## 3-oxo-C12:2-HSL
[1]
  IL-10 expression (Il10 mRNA): strongly increased
  Il1b mRNA level: reduced
  Tnf mRNA level: reduced
[2]; calcium response F/F0
  maximum amplitude: 0.05 ± 0.01
[2]; calcium response, 0–1000 µM
  EC50: 476 ± 125 µM
[3]; calcium response F/F0
  maximum amplitude: around 0.45
[3]; calcium response, 0–1000 µM
  EC50: 333 ± 27 µM
[4]; Fluo-4 F/F0, two hours
  slope of the calcium response curve vs control condition: significantly higher
[4]; basal state, Fluo-4, two hours, control DMSO 0.5%
  intracellular calcium level compared with the control: increase
